#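 Interpolation was linear, between the two tested concentrations surrounding the appropriate level; five concentrations were tested over 48 hours in 96-well plates. TGI: total growth inhibition.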
# What was measured:
# Assay in all cases: NCI-60 cell line screen, 48 h
# [1] = system: 786-0 renal
# [2] = system: A498 renal
# [3] = system: A549 NSCLC
# [4] = system: ACHN renal
# [5] = system: BT-549 breast
# [6] = system: CAKI-1 renal
# [7] = system: CCRF-CEM leukemia
# [8] = system: COLO 205 colon
# [9] = system: DU-145 prostate
# [10] = system: EKVX NSCLC
# [11] = system: HCT-116 colon
# [12] = system: HCT-15 colon
# [13] = system: HL-60(TB) leukemia
# [14] = system: HOP-62 NSCLC
# [15] = system: HOP-92 NSCLC
# [16] = system: HS 578T breast
# [17] = system: HT29 colon
# [18] = system: IGROV1 ovarian
# [19] = system: K-562 leukemia
# [20] = system: KM12 colon
# [21] = system: LOX IMVI melanoma
# [22] = system: M14 melanoma
# [23] = system: MALME-3M melanoma
# [24] = system: MCF7 breast
# [25] = system: MDA-MB-231 breast
# [26] = system: MDA-MB-435
# [27] = system: MDA-N
# [28] = system: MOLT-4 leukemia
# [29] = system: NCI-H226 lung
# [30] = system: NCI-H23 lung
# [31] = system: NCI-H460 lung
# [32] = system: NCI-H522 lung
# [33] = system: NCI/ADR-RES ovarian
# [34] = system: OVCAR-3 ovarian
# [35] = system: OVCAR-4 ovarian
# [36] = system: OVCAR-5 ovarian
# [37] = system: OVCAR-8 ovarian
# [38] = system: PC-3 prostate
# [39] = system: RPMI-8226 leukemia
# [40] = system: RXF 393 renal
# [41] = system: SF-268 CNS
# [42] = system: SF-295 CNS
# [43] = system: SF-539 CNS
# [44] = system: SK-MEL-2 melanoma
# [45] = system: SK-MEL-28 melanoma
# [46] = system: SK-MEL-5 melanoma
# [47] = system: SK-OV-3 ovarian
# [48] = system: SN12C renal
# [49] = system: SNB-19 CNS
# [50] = system: SNB-75 CNS
# [51] = system: SR leukemia
# [52] = system: SW-620 colon
# [53] = system: T-47D breast
# [54] = system: TK-10 renal
# [55] = system: U251 CNS
# [56] = system: UACC-257 melanoma
# [57] = system: UACC-62 melanoma
# [58] = system: UO-31 renal
# [59] = system: HCC-2998 colon
compound,measurement,setting,value
O=[N+]([O-])c1ccc(CS(=O)Cc2ccccc2)cc1 (stereo not drawn),TGI,[1],> 100 µM
same,TGI,[2],> 100 µM
same,TGI,[3],> 100 µM
same,TGI,[4],> 100 µM
same,TGI,[5],> 100 µM
same,TGI,[6],> 100 µM
same,TGI,[7],> 100 µM
same,TGI,[8],> 100 µM
same,TGI,[9],> 100 µM
same,TGI,[10],> 100 µM
same,TGI,[11],> 100 µM
same,TGI,[12],> 100 µM
same,TGI,[13],> 100 µM
same,TGI,[14],> 100 µM
same,TGI,[15],> 100 µM
same,TGI,[16],> 100 µM
same,TGI,[17],> 100 µM
same,TGI,[18],> 100 µM
same,TGI,[19],> 100 µM
same,TGI,[20],> 100 µM
same,TGI,[21],> 100 µM
same,TGI,[22],> 100 µM
same,TGI,[23],> 100 µM
same,TGI,[24],> 100 µM
same,TGI,[25],> 100 µM
same,TGI,[26],> 100 µM
same,TGI,[27],> 100 µM
same,TGI,[28],> 100 µM
same,TGI,[29],> 100 µM
same,TGI,[30],> 100 µM
same,TGI,[31],> 100 µM
same,TGI,[32],> 100 µM
same,TGI,[33],> 100 µM
same,TGI,[34],> 100 µM
same,TGI,[35],> 100 µM
same,TGI,[36],> 100 µM
same,TGI,[37],> 100 µM
same,TGI,[38],> 100 µM
same,TGI,[39],> 100 µM
same,TGI,[40],> 100 µM
same,TGI,[41],> 100 µM
same,TGI,[42],> 100 µM
same,TGI,[43],> 100 µM
same,TGI,[44],> 100 µM
same,TGI,[45],> 100 µM
same,TGI,[46],> 100 µM
same,TGI,[47],> 100 µM
same,TGI,[48],> 100 µM
same,TGI,[49],> 100 µM
same,TGI,[50],> 100 µM
same,TGI,[51],> 100 µM
same,TGI,[52],> 100 µM
same,TGI,[53],> 100 µM
same,TGI,[54],> 100 µM
same,TGI,[55],> 100 µM
same,TGI,[56],> 100 µM
same,TGI,[57],> 100 µM
same,TGI,[58],> 100 µM
Clc1ncnc2c1nc(C#Cc1ccccc1)n2Cc1ccccc1,TGI,[1],> 100 µM
same,TGI,[2],> 100 µM
same,TGI,[3],> 100 µM
same,TGI,[4],> 100 µM
same,TGI,[5],49.8 µM
same,TGI,[6],37.1 µM
same,TGI,[7],> 100 µM
same,TGI,[8],45.8 µM
same,TGI,[9],29 µM
same,TGI,[10],29.3 µM
same,TGI,[59],27 µM
same,TGI,[11],> 100 µM
same,TGI,[12],36.6 µM
same,TGI,[13],> 100 µM
same,TGI,[14],> 100 µM
same,TGI,[15],59.9 µM
same,TGI,[16],> 100 µM
same,TGI,[17],72.2 µM
same,TGI,[19],> 100 µM
same,TGI,[20],> 100 µM
same,TGI,[21],28.3 µM
same,TGI,[22],53 µM
same,TGI,[23],> 100 µM
same,TGI,[24],> 100 µM
same,TGI,[25],71 µM
same,TGI,[26],43 µM
same,TGI,[27],53.8 µM
same,TGI,[28],> 100 µM
same,TGI,[29],> 100 µM
same,TGI,[30],42.8 µM
same,TGI,[31],> 100 µM
same,TGI,[32],36.7 µM
same,TGI,[33],> 100 µM
same,TGI,[34],21.6 µM
same,TGI,[35],35.8 µM
same,TGI,[36],> 100 µM
same,TGI,[37],53.9 µM
same,TGI,[38],> 100 µM
same,TGI,[40],48 µM
same,TGI,[41],> 100 µM
same,TGI,[42],> 100 µM
same,TGI,[43],83.8 µM
same,TGI,[44],98.4 µM
same,TGI,[45],44.2 µM
same,TGI,[46],> 100 µM
same,TGI,[47],> 100 µM
same,TGI,[48],60 µM
same,TGI,[49],> 100 µM
same,TGI,[50],92.2 µM
same,TGI,[51],> 100 µM
same,TGI,[52],> 100 µM
same,TGI,[53],> 100 µM
same,TGI,[54],> 100 µM
same,TGI,[55],34.9 µM
same,TGI,[56],74.7 µM
same,TGI,[57],> 100 µM
same,TGI,[58],5.47 µM
COc1ccc(/C=C(\NC(=O)c2ccccc2)C(=O)NN(C)c2ccnc3cc(Cl)ccc23)cc1OC,TGI,[1],79.2 µM
same,TGI,[2],> 100 µM
same,TGI,[3],97.1 µM
same,TGI,[4],79 µM
same,TGI,[5],39.5 µM
same,TGI,[6],90.6 µM
same,TGI,[8],61 µM
same,TGI,[9],66.3 µM
same,TGI,[10],> 100 µM
same,TGI,[11],> 100 µM
same,TGI,[12],55.4 µM
same,TGI,[14],> 100 µM
same,TGI,[15],55.3 µM
same,TGI,[16],> 100 µM
same,TGI,[17],> 100 µM
same,TGI,[18],47.6 µM
same,TGI,[19],51.2 µM
same,TGI,[20],34.7 µM
same,TGI,[21],35.1 µM
same,TGI,[22],47.9 µM
same,TGI,[23],72.5 µM
same,TGI,[24],46.3 µM
same,TGI,[25],60.3 µM
same,TGI,[26],49.6 µM
same,TGI,[27],65.7 µM
same,TGI,[28],47.7 µM
same,TGI,[29],40.8 µM
same,TGI,[30],62.8 µM
same,TGI,[31],39.3 µM
same,TGI,[32],44.1 µM
same,TGI,[33],43.8 µM
same,TGI,[34],69.7 µM
same,TGI,[35],90.5 µM
same,TGI,[36],> 100 µM
same,TGI,[37],46.8 µM
same,TGI,[38],70.2 µM
same,TGI,[39],45.3 µM
same,TGI,[40],38.4 µM
same,TGI,[41],35.4 µM
same,TGI,[42],97.1 µM
same,TGI,[43],46.5 µM
same,TGI,[44],46 µM
same,TGI,[45],58.1 µM
same,TGI,[46],88.3 µM
same,TGI,[47],> 100 µM
same,TGI,[48],66.9 µM
same,TGI,[49],> 100 µM
same,TGI,[50],> 100 µM
same,TGI,[51],41.3 µM
same,TGI,[52],51.3 µM
same,TGI,[53],> 100 µM
same,TGI,[54],> 100 µM
same,TGI,[55],35.4 µM
same,TGI,[56],79.1 µM
same,TGI,[58],80.4 µM
C/C(=N\NC(N)=O)C(CN(C)C)C(c1ccccc1)c1c(O)c2ccccc2oc1=O (stereo not drawn),TGI,[1],> 100 µM
same,TGI,[2],> 100 µM
same,TGI,[3],> 100 µM
same,TGI,[4],> 100 µM
same,TGI,[5],> 100 µM
same,TGI,[6],> 100 µM
same,TGI,[7],> 100 µM
same,TGI,[8],> 100 µM
same,TGI,[9],> 100 µM
same,TGI,[10],> 100 µM
same,TGI,[59],> 100 µM
same,TGI,[11],> 100 µM
same,TGI,[12],> 100 µM
same,TGI,[13],> 100 µM
same,TGI,[14],> 100 µM
same,TGI,[15],7.67 µM
same,TGI,[16],> 100 µM
same,TGI,[17],> 100 µM
same,TGI,[18],> 100 µM
same,TGI,[19],> 100 µM
same,TGI,[20],> 100 µM
same,TGI,[21],> 100 µM
same,TGI,[22],> 100 µM
same,TGI,[23],> 100 µM
same,TGI,[24],> 100 µM
same,TGI,[25],> 100 µM
same,TGI,[26],> 100 µM
same,TGI,[27],> 100 µM
same,TGI,[28],> 100 µM
same,TGI,[29],> 100 µM
same,TGI,[30],> 100 µM
same,TGI,[31],> 100 µM
same,TGI,[32],> 100 µM
same,TGI,[33],> 100 µM
same,TGI,[34],> 100 µM
same,TGI,[35],> 100 µM
same,TGI,[36],> 100 µM
same,TGI,[37],> 100 µM
same,TGI,[38],> 100 µM
same,TGI,[39],> 100 µM
same,TGI,[40],> 100 µM
same,TGI,[41],> 100 µM
same,TGI,[42],> 100 µM
same,TGI,[43],> 100 µM
same,TGI,[44],> 100 µM
same,TGI,[45],> 100 µM
same,TGI,[46],> 100 µM
same,TGI,[48],> 100 µM
same,TGI,[49],> 100 µM
same,TGI,[50],> 100 µM
same,TGI,[51],> 100 µM
same,TGI,[52],> 100 µM
same,TGI,[53],> 100 µM
same,TGI,[54],> 100 µM
same,TGI,[55],> 100 µM
same,TGI,[56],> 100 µM
same,TGI,[57],> 100 µM
same,TGI,[58],> 100 µM
